Assays:
S-180 sarcoma [1] = experiment: Animal Test A: SDT with dihydroporphin e4 in KM mouse S-180 sarcoma model; assay type: in vivo; conditions: for Average Tumor Weights: 12 days after treatment
Procedure: The sound-sensitive agent, dihydroporphin e4, is prepared according to Chinese Patent No. 99119878.6. The agent is dissolved in water for injection in darkness to give a final concentration of 4 mg/mL. The resultant solution is stored at 4° C. in darkness.
The animal tumor model used in this study was the KM mouse S-180 sarcoma, which is one of the tumor models appointed by the China Food and Drug Administration (CFDA) for new anticancer drug testing. Mouse S-180 sarcoma cell line was commercially available from the Cancer Hospital affiliated to Sun Yat-sen University. The inbred strain of KM mice (female, about 18-20 g body weight) was bred and tested in a laboratory consistent with national standards for new drug tests (the Animal Experimental Centre of Guangzhou Chinese Traditional Medical University). The mouse S-180 sarcoma cell line was injected into and raised in the abdominal cavity of the KM mouse and regenerated 3 times by passing malignant ascites from one mouse to another to confirm their growth is stable.
The ultrasound having a frequency of 1.0 MHz and an adjustable power density in the range of 0.1-2.2 W/cm^2 is applied. The apparatus can emit parallel wave, continuous wave or discontinuous wave.
The ascites with S-180 cell suspension was drawn out from the abdomen of the third passage mouse, and germ-free physiological saline solution was added. The final concentration of the cell suspension was 1×10^7 cells/mL. 0.1 mL of the cell suspension was injected subcutaneously in the right axilla of the mouse to grow a solid tumor.
Three days later, a small mass with the average diameter of about 0.4 cm was seen and palpated on every implanted mouse axilla. These tumor-bearing mice are divided randomly into the following groups with 5 mice in each group: • 1) a blank control group (C); • 2) a ultrasound group (U), which are simply treated with ultrasound (having a frequency of 1.0 MHz and a power density of 1.6 W/cm^2) without injection of the sound-sensitive agent; • 3) a sound-sensitive agent group (E), which are simply injected with the sound-sensitive agent without treatment of ultrasound; • 4) a 0.4 group (EU1), which are injected with the sound-sensitive agent and subsequently treated with ultrasound having a frequency of 1.0 MHz and a power density of 0.4 W/cm^2; • 5) a 0.8 group (EU2), which are treated according to EU1 except using ultrasound having a power density of 0.8 W/cm^2; and • 6) a 1.6 group (EU3), which are treated according to EU1 except using ultrasound having a power density of 1.6 W/cm^2.
To prepare the mice for the experiment, the fur on the tumor-bearing area of the mice was removed with depilatory cream. For the E, EU1, EU2 and EU3 groups, the sound-sensitive agent was injected into each mouse abdominal cavity in a dose of 40 mg/kg in a dark room. The mice are kept in darkness.
(§1) Six hours after the injection, each mouse of the EU1, EU2 and EU3 groups and the U group is partially immerged in water with only their head remaining above the water surface. An ultrasound probe was then placed into the water to irradiate the tumor area at the above parameters for 3 minutes. The mice of each group are fed in a conventional way.
After treatment with SDT, primary tumor size were estimated by measuring perpendicular minor dimension (W) and major dimension (L) using sliding calipers every one or two days. Approximate tumor volume was calculated by the formula: W^2L×½.
12 days later, the mice are sacrificed by breaking the cervical vertebrae. The tumor tissues are separated and weighed on an electronic balance to calculate an average weight. Various groups are compared in terms of their respective average tumor weight at the 12th day.
In comparing the tumor weights of various groups, statistic analysis is performed using the Student's t test.

[2] = test system: right breast carcinoma, tumor metastasis in liver; experiment: Clinical case: SDT with lysine form of tin chlorophyllin; assay type: in vivo, human; conditions: patient
Procedure: A patient with right breast carcinoma. […] 9, 2007 (see FIG. 5). The lysine form of tin chlorophyllin as indicated in the above animal test B was dissolved in 0.1 mol/L phosphate buffer (pH 7.4) and given to the patient through lingual absorption every day for 2 days. Total dose of the lysine form of tin chlorophyllin was 60 mg. After 24 h, the red light light-emitting diode (LED) was irradiated to the body surface followed by local ultrasound irradiating of the tumour area at the intensities of 2.0 W/cm^2 for 20 minutes in a water bathtub every day for 3 days. One week later, the treatment was repeated. After 3 cycles of SDT treatment with the lysine form of tin chlorophyllin, CT-PET scan on Jan.

S-180 sarcoma [3] = experiment: Animal Test B: SDT with lysine form of tin chlorophyllin in KM mouse S-180 sarcoma model; assay type: in vivo
Procedure: The sound-sensitive agent was the amino acid form of tin chlorophyllin, wherein M is Sn^4+, R1 is a residue of lysine, and R2 is a residue of lysine; the agent was obtained according to the previous process. The agent was dissolved in 0.1 mol/L phosphate buffer (pH 7.2-7.4) in darkness to give a final concentration of 2 mg/mL. The resultant solution was stored at 4° C. in a dark and quiet place.
The same as used in the above Animal Test A.
The same as established in the above Animal Test A.
After four days, touchable tumors with the average diameter of about 0.6 cm are developed subcutaneously at the right axillae of the mice. These tumor-bearing mice are divided randomly into the following groups: • 1) a blank control group (C); • 2) a ultrasound group (U), which are simply treated with ultrasound (having a frequency of 1.0 MHz and a power density of 1.2 W/cm^2) without injection of the sound-sensitive agent; • 3) a sound-sensitive agent group (S), which are simply injected with the sound-sensitive agent without treatment of ultrasound; • 4) a 0.3 group (SU1), which are injected with the sound-sensitive agent and subsequently treated with ultrasound having a frequency of 1.0 MHz and a power density of 0.3 W/cm^2; • 5) a 0.6 group (SU2), which are treated according to SU1 except using ultrasound having a power density of 0.6 W/cm^2; and • 6) a 1.2 group (SU3), which are treated according to SU1 except using ultrasound having a power density of 1.2 W/cm^2.
A depilatory cream is applied to remove fur on the areas to be irradiated. For the S, SU1, SU2 and SU3 groups, the sound-sensitive agent is injected intraperitoneally to each mouse at a dose of 20 mg/kg in a dark room. The mice are then fed in darkness.
as §1, with “6 h” for “Six hours”, “after” for “after the”, “SU1, SU2” for “EU1, EU2”, “SU3” for “EU3”, “ultrasond” for “ultrasound”, “180 seconds.” for “3 minutes.”
The same as in the above Animal Test A.
15 days later, the mice are sacrificed by breaking the cervical vertebrae. The tumor tissues are separated and weighed on an electronic balance to calculate an average weight. Various groups are compared in terms of their respective average tumor weights at the 15th day.

Substance | tumor growth (FIG. 2) (S-180 sarcoma [1]; SDT, ultrasound power density 0.4 W/cm^2-1.6 W/cm^2) | Average Tumor Weights (S-180 sarcoma [1]; group E: 40 mg/kg into abdominal cavity, no ultrasound) | average tumor volume profile (FIG. 1) (S-180 sarcoma [1]; group E: 40 mg/kg, no ultrasound) | Average Tumor Weights (S-180 sarcoma [1]; group EU1: 40 mg/kg into abdominal cavity + ultrasound 1.0 MHz, 0.4 W/cm^2, 3 min, 6 h after injection) | Average Tumor Weights (S-180 sarcoma [1]; group EU2: 40 mg/kg into abdominal cavity + ultrasound 1.0 MHz, 0.8 W/cm^2, 3 min, 6 h after injection) | average tumor volume profile (FIG. 1) (S-180 sarcoma [1]; group EU3: 40 mg/kg + ultrasound 1.6 W/cm^2) | Average Tumor Weights (S-180 sarcoma [1]; group EU3: 40 mg/kg into abdominal cavity + ultrasound 1.0 MHz, 1.6 W/cm^2, 3 min, 6 h after injection) | Blood Routine and chemistry tests ([2]; after 3 cycles of SDT) | symptom ([2]; after 3 cycles of SDT) | CT-PET scan of liver metastasis after 3 cycles of SDT ([2]; total dose 60 mg by lingual absorption, red LED light + ultrasound 2.0 W/cm^2, 20 min, daily for 3 days per cycle) | effect on the tumor (FIG. 4) (S-180 sarcoma [3]; SDT, ultrasound power density 0.3 W/cm^2-1.2 W/cm^2) | Average Tumor Weight (S-180 sarcoma [3]; group S: 20 mg/kg intraperitoneally, no ultrasound, 15 days after treatment) | average tumor volume profile (FIG. 3) (S-180 sarcoma [3]; group S: 20 mg/kg, no ultrasound) | Average Tumor Weight (S-180 sarcoma [3]; group SU1: 20 mg/kg intraperitoneally + ultrasound 1.0 MHz, 0.3 W/cm^2, 180 s, 6 h after injection, 15 days) | Average Tumor Weight (S-180 sarcoma [3]; group SU2: 20 mg/kg intraperitoneally + ultrasound 1.0 MHz, 0.6 W/cm^2, 180 s, 6 h after injection, 15 days) | average tumor volume profile (FIG. 3) (S-180 sarcoma [3]; group SU3: 20 mg/kg + ultrasound 1.2 W/cm^2) | Average Tumor Weight (S-180 sarcoma [3]; group SU3: 20 mg/kg intraperitoneally + ultrasound 1.0 MHz, 1.2 W/cm^2, 180 s, 6 h after injection, 15 days)
dihydroporphin e4 | tumor growth is significantly inhibited | 1.8800 ± 0.3114 g | slower increase compared with the blank control group | 0.7600 ± 0.0894 g | 0.5800 ± 0.0837 g | even slower tumor development | 0.5200 ± 0.0837 g |  |  |  |  |  |  |  |  |  | 
lysine form of tin chlorophyllin |  |  |  |  |  |  |  | normal result | much improved | the tumor shrank and the tumor metabolic activity was inhibited | killing effect on the tumor | 0.269 ± 0.331 g | slower increase compared to the blank control group | 0.0435 ± 0.031 g | 0.022 ± 0.008 g | hardly increased during the first six days after the SDT treatment, and began to decrease from the 7th day, and noticeably lower at the 15th day than before the test | 0.011 ± 0.004 g
